Reference: patent publication US6114326A, “Use of cabergoline in the treatment of restless legs syndrome” (priority 1999, dated 2000)
“Also recorded” adds a separate entry of the source.

Columns and labels:
[1] = tested on: restless legs syndrome patients; test: Patients' subjective ratings (PGI, RLS severity, sleep satisfaction, sleep diary, quality of life) in 12-week open label trial; format: in vivo
Description: Efficacy was assessed by polysomnography and subjective ratings.
(§1) Following a 2-week baseline period, all patients were treated with cabergoline in an open trial for 12 weeks. Apart from levodopa, patients had to stop taking any medication known to have positive or negative effect on RLS two weeks before baseline (i.e., other dopamine agonists, benzodiazepines, opioids or other psychotropic agents). Patients who were on levodopa therapy were allowed to either stop levodopa prior to study entry or to continue, taper or discontinue levodopa during the study. To prevent well known peripheral dopaminergic side-effects such as nausea, vomiting, vertigo and arterial hypotension domperidone (not available in the United States) was comedicated initially and also tapered if possible. […] Neurological case history, examination, electrocardiogramm, chest x-ray and polysomnography were performed to ensure that selection criteria were fulfilled. A two-night PSG (including one night of adaptation) was performed to evaluate the diagnosis and inclusion/exclusion criteria regardless if patients were on or off levodopa. After a 12-week treatment period patients were studied again for one night in the sleep laboratory. Subjective ratings were obtained at baseline, week 4, week 8 and at the endpoint after 12 weeks. In addition patients were monitored by phone calls to note any adverse events and to determine whether to increase the dosage of the study drug, to decrease levodopa and to decrease domperidone. The time schedule of phone calls was variable and the frequency mostly dependent on the presence of simultaneous levodopa therapy.
Dosing. Study medication was available in tablets containing 0.5 mg, 1 mg or 2 mg Cabergoline (Cabaseril®, Pharmacia & Upjohn, Erlangen, Germany). Medication was taken 2 hours prior to bedtime. Initial therapy consisted of one 0.5 mg tablet. […] The increased dose could be decreased again if necessary. All patients were initially comedicated with domperidone 20 mg t.i.d. which could be tapered and stopped if possible. Subjects who were pretreated with levodopa were asked to decrease levodopa simultaneously if possible.
Subjective ratings. After each night of recording and at each visit at week 2 and 4, patients rated the severity of illness (normal to extremely ill), the therapeutic effects by rating their global improvements by use of the Patients Global Impressions (general condition very much worse to very much better), the severity of RLS symptoms during the time of falling asleep, during the night and during the day (scale: 0=not present to 10=very strong) and sleep satisfaction (very unsatisfied to very satisfied). In addition patients rated their quality of life, concerning well being and complaints during the previous week, using modified 50-mm Hamburger Visual Analogue Scale. Patients also filled in a sleep diary at each study visit rating the following symptoms: global assessment of sleep (very bad to very good night), sleep latency, sleep time, frequency of awakenings and urge to move the legs at time falling asleep, during the night and during the day (scale: 0=not present to 10=very strong).
(§2) Statistical analysis. Statistical evaluation was performed as intent-to-treat analysis using descriptive statistics.

[2] = tested on: restless legs syndrome patients; test: Physician's rating (CGI) in 12-week open label trial; format: in vivo
Description: as §1
Physician's rating. The physician rated the severity of illness at baseline (normal to extremely ill), the global improvement (general condition very much worse to very much better) and the side effects by use of the Clinical Global Impressions (CGI). Safety. Safety of Cabergoline was assessed to the type and frequency of adverse event, clinically significant changes in laboratory data or ECG and premature discontinuation of study participation. Adverse events were classified as serious versus nonserious and characterized by intensity, relationship to drug treatment, frequency, course and therapeutic intervention.
as §2

[3] = cited to Ahlskog et al. 1996; cited from earlier work
[4] = of 9 patients, under cabergoline

C=CCN1C[C@H](C(=O)N(CCCN(C)C)C(=O)NCC)C[C@@H]2c3cccc4[nH]cc(c34)C[C@H]21 [Cabergoline, 1((6-allylergolin-8β-yl) -carbony.)-1-(3-(dimethylamino)propyl)-3-ethylurea]
subjective and objective sleep parameters (in words) ([1]; 12-week treatment, 1 to 4 mg (mean 2.1 mg)): marked improvement | relief of RLS symptoms (in words) ([1]; all patients, 12 weeks, 1 to 4 mg single evening dose): significant relief or became free of RLS symptoms; also recorded: complete or significant relief of RLS symptoms | times patients had to get up per night (sleep diary) ([1]; endpoint, baseline 2.1): 0.6 times per night | duration of efficacy in RLS therapy ([1]; human, in vivo): 24 h | markedly satisfied with sleep, number of patients ([1]; of 9 patients, endpoint): 4 | moderately satisfied with sleep, number of patients ([1]; of 9 patients, endpoint): 1 | moderately unsatisfied with sleep, number of patients ([1]; of 9 patients, endpoint): 2 | severity of illness rated borderline (PGI), number of patients ([1]; of 9 patients, endpoint): 2 | severity of illness rated moderately ill (PGI), number of patients ([1]; of 9 patients, endpoint): two | severity of illness rated normal (PGI), number of patients ([1]; of 9 patients, endpoint, at baseline extremely (2), very (4) or markedly (3) ill): 5 | very satisfied with sleep, number of patients ([1]; of 9 patients, endpoint, baseline very (1), markedly (6) or moderately (2) unsatisfied): 2 | general condition much better (PGI), number of patients [1, 4]: 3 | general condition very much better (PGI), number of patients [1, 4]: 6 | RLS severity during the time of falling asleep ([1]; scale 0=not present to 10=very strong, last week, baseline 4.9±4.3): 0.4±0.7 | RLS severity during the day ([1]; scale 0=not present to 10=very strong, last week, baseline 5.1±3.4): 0.8±1.7 | RLS severity during the night ([1]; scale 0=not present to 10=very strong, last week, baseline 6.7±2.7): 1.6±2.6 | global quality of the previous night (sleep diary) ([1]; scale zero (very bad) to 10 (very good), endpoint, baseline 3.1): 6.9 | efficacy in restless legs syndrome (in words) ([1]; single evening dose, incl. severe RLS and levodopa augmentation): effective and well tolerated; also recorded: very effective and well tolerated | quality of life (Hamburger Visual Analogue Scale), in words ([1]; vs. baseline conditions): much better | global improvement (physician's rating, in words) ([2]; in vivo): significant global improvement | general condition minimally better (physician's rating), number of patients ([2]; of 9 patients): 1 | general condition much better (physician's rating), number of patients ([2]; of 9 patients): 3 | general condition very much better (physician's rating), number of patients ([2]; of 9 patients): 5 | duration of action [3]: at least 24 hours
